Tested on: skin of the forearms of 10 panelists (stratum corneum)
Experiment: Testing by Conductance Measurement (rate of skin conductance change)
Format: in vivo, human
Conditions: for conductance evaluation, 30 minutes / conductance evaluation, 60 minutes / conductance evaluation, 120 minutes: Table 1, 10% aqueous solution; for conductance evaluation, 30 minutes: 30 minutes after application; for conductance evaluation, 60 minutes: 60 minutes after application; for conductance evaluation, 120 minutes: 120 minutes after application
Protocol: “Testing by Conductance Measurement” The skin conductance was measured before the application and after 30 minutes, 60 minutes, and 120 minutes of the application on the forearms of 10 panelists. From the rate of change, the moisturizing effect was evaluated. The rate of change of the skin conductance is determined by the following equation (III), and the influences on the water-absorbing property and the moisture-retention ability of the stratum corneum can be investigated. If the rate of change is small, it can be estimated that there is an increase in the water content in the stratum corneum and that the moisturizing effect is high. Rate of conductance change=(conductance before application)/(conductance after application) Equation (III) The evaluation criteria for the “Testing by Conductance Measurement” are as follows. ⊚: Average of the rate of conductance change of 10 panelists: 0 or higher and lower than 0.1 ◯: Average of the rate of conductance change of 10 panelists: 0.1 or higher and lower than 0.2 Δ: Average of the rate of conductance change of 10 panelists: 0.2 or higher and lower than 0.5 X: Average of the rate of conductance change of 10 panelists: 0.5 or higher Initially, the present inventors evaluated the conductance, based on the above-described criteria, for respective 10% aqueous solutions of various moisturizers.

## CC(O)CCO (stereo not shown) [1,3-butylene glycol]
  conductance evaluation, 30 minutes: Δ (Average of the rate of conductance change of 10 panelists: 0.2 or higher and lower than 0.5)
  conductance evaluation, 60 minutes: Δ (Average of the rate of conductance change of 10 panelists: 0.2 or higher and lower than 0.5)
  conductance evaluation, 120 minutes: Δ (Average of the rate of conductance change of 10 panelists: 0.2 or higher and lower than 0.5)

## OCC(O)CO [glycerin]
  conductance evaluation, 30 minutes: ⊚ (Average of the rate of conductance change of 10 panelists: 0 or higher and lower than 0.1)
  conductance evaluation, 60 minutes: ◯ (Average of the rate of conductance change of 10 panelists: 0.1 or higher and lower than 0.2)
  conductance evaluation, 120 minutes: ◯ (Average of the rate of conductance change of 10 panelists: 0.1 or higher and lower than 0.2)
Table 7, 5 % alone in ion exchanged water 95 %
  Conductance measurement evaluation: Δ (Average of the rate of conductance change of 10 panelists: 0.2 or higher and lower than 0.5)
